# Assay results taken from US10500222B2, “Compositions and methods relating to treatment of infection” (Wayne State University, priority 2015, dated 2019).
# Entries after “also recorded” stand apart in the source; their conditions may differ.
# Key:
# Assay type in all cases: in vivo, C57BL/6 (B6) mice
# [1] = tested on: P. aeruginosa KEI 1025 infected cornea; test: Ocular response to bacterial infection (clinical score, slit lamp), KEI 1025 keratitis; conditions: subconj. 1 day before infection + IP 1 and 3 days p.i., vs PBS
# Text: P. aeruginosa strains, KEI 1025, a non-cytotoxic clinical isolate strain expressing exoT and exoS, and not expressing exoU, described in Estrellas P S, Jr., et al., Curr Eye Res. 2000; 20:157-165 (obtained from Kresge Eye Institute, Detroit, Mich.), and a cytotoxic strain, 19660, expressing exoU, described in Finck-Barbancon V, et al., Mol Microbiol. 1997; 25:547-557; and Fleiszig S M, et al., Infect Immun. 1997; 65:579-586 (obtained from American Type Culture Collection, ATCC, Manassas, Va.), were grown in peptone tryptic soy broth (PTSB) medium in a rotary shaker water bath at 37° C. and 150 rpm for 18 h to an optical density (measured at 540 nm) between 1.3-1.8. Bacterial cultures were pelleted by centrifugation at 5,500 g for 10 min. Pellets were washed once with sterile saline, re-centrifuged, re-suspended and diluted in sterile saline. Anesthetized (using anhydrous ethyl ether) mice were placed beneath a stereoscopic microscope at 40× magnification. The left cornea was scarified with three 1-mm incisions using a sterile 25^5/8 gauge needle. The wounded corneal surface was topically treated with 5 μl containing 1×10^7 CFU/μl (KEI 1025) or 1×10^6 CFU/μl (ATCC strain 19660) of the P. aeruginosa suspension.
# An established corneal disease grading scale, described in detail in Hazlett L D, et al., Invest Ophthalmol Vis Sci. 1987; 28:1978-1985, was used to assign a clinical score value to each infected eye at 1, 3 and 5 days post infection (p.i.). Clinical scores were designated as: 0=clear or slight opacity, partially or fully covering the pupil; +1=slight opacity, fully covering the anterior segment; +2=dense opacity, partially or fully covering the pupil; +3=dense opacity, covering the entire anterior segment; and +4=corneal perforation or phthisis. Clinical scores were used to statistically compare disease severity and were accompanied by photographs using a slit lamp (5 days p.i.) to confirm and illustrate the response.
# (§1) The left eyes of B6 mice (n=5/group/time) were injected with 5 μl of 2 μg/μl glycyrrhizin (GLY) (Sigma-Aldrich, St. Louis, Mo.) or PBS (control) subconjunctivally, one day before infection. Similar treatment was done using carbenoxolone (CBX) (Sigma-Aldrich, St. Louis, Mo.). All mice were injected intraperitoneally (IP) at 1 and 3 days p.i. with 100 μl of GLY (2 μg/μl) or CBX (1 μg/μl). PBS served as control for all these experiments. In a separate similar experiment mice were treated one day before infection with GLY subconjunctivally and injected intraperitoneally (i.p.) with GLY plus recombinant (r) HMGB1 (1 μg/100 μl) or GLY plus PBS. IP injections were similarly given at 1 and 3 days p.i. In an additional experiment, KEI 1025 infected B6 mice were treated with 5 μl of 2 μg/μl GLY subconjunctivally at 6 hours p.i. and injected intraperitoneally at 1 and 3 days p.i. with 100 μl of GLY (2 μg/μl).
# [2] = tested on: mRNA levels in P. aeruginosa KEI 1025 infected cornea; test: Real time RT-PCR of cornea, KEI 1025 infection
# Procedure: as §1
# KEI 1025 or ATCC strain 19660 infected GLY or PBS treated mice were sacrificed at 5 days p.i. and the normal, contralateral (uninfected) and infected cornea was harvested. For each cornea, total RNA was isolated (RNA STAT-60™; Tel-Test, Friendswood, Tex.) according to the manufacturer's instructions. Upon spectrophotometric quantification at 260 nm, 1 μg of each RNA sample was reverse transcribed using Moloney-murine leukemia virus (M-MLV) reverse transcriptase (Invitrogen, Carlsbad, Calif.) to produce a cDNA template for the PCR reaction. cDNA products were diluted 1:25 with diethylpyrocarbonate (DEPC)-treated water. A 2 μl aliquot of diluted cDNA was used for the real-time RT-PCR reaction with Real-Time SYBR® Green/Fluorescein PCR Master Mix (Bio-Rad) and primer concentrations of 10 μM (total 10 μl reaction volume). After a pre-programmed hot start cycle (3 min at 95° C.), the parameters used for PCR amplification were: 15 sec at 95° C. and 60 sec at 60° C. with the cycles repeated 45 times. Optimal conditions for PCR amplification of cDNA were established using routine methods. mRNA levels of HMGB1, RAGE, IL-1β, TLR2, TLR4, CXCL2, TNF-α, NLR family pyrin domain containing 3 (NLRP3), NLR family CARD domain containing 4 (NLRC4), IL-12, TGF-β, IL-10, single Ig IL-1-related receptor (SIGIRR) and interleukin 1 receptor-like 1 (ST2) were tested by real-time RT-PCR (CFX Connect™ Real-Time PCR Detection System; Bio-Rad, Richmond, Calif.). The fold differences in gene expression were calculated after normalization to β-actin and expressed as the relative mRNA concentration+SEM.
# [3] = tested on: P. aeruginosa KEI 1025; test: Quantification of viable bacteria (plate count), KEI 1025 infection; conditions: pretreatment subconj. + IP, vs PBS
# Procedure: as §1
# Mice were sacrificed at 3 and 5 days p.i. and KEI 1025 or ATCC strain 19660 infected corneas from GLY, CBX or PBS (or GLY+/−rHMGB1) treated B6 mice were harvested (n=5/group/time). Each cornea was homogenized in 1 ml of sterile saline (0.85% NaCl, pH 7.4) containing 0.25% BSA. A 100 μl of the corneal homogenate was serially diluted (1:10) in sterile saline containing 0.25% BSA. Selected dilutions were plated in triplicate on selective culture medium (Difco™ Pseudomonas Isolation Agar, BD Biosciences, Inc., Franklin Lakes, N.J.). Plates were incubated overnight at 37° C. and viable bacteria manually counted. Results are reported as log10 CFU/cornea±SEM.
# [4] = KEI 1025, pretreatment subconj. + IP, infected cornea 5 days p.i., vs PBS
smiles,measurement,setting,value
"CC1(C)[C@@H](OC(=O)CCC(=O)O)CC[C@]2(C)[C@H]3C(=O)C=C4[C@@H]5C[C@@](C)(C(=O)O)CC[C@]5(C)CC[C@@]4(C)[C@]3(C)CC[C@@H]12 [CBX, carbenoxolone]",clinical scores,[1]; 3 days p.i.,statistically significant reduction in disease scores; also recorded: only reduced at 3 days
same,clinical scores,[1]; 5 days p.i.,not at 5 (p=0.2) days p.i.
same,"opacity, slit lamp photographs",[1]; 5 days p.i.,reduced opacity
same,CXCL2 mRNA levels,[2]; [4],reduced
same,HMGB1 mRNA levels,[2]; [4],no difference
same,IL-1β mRNA levels,[2]; [4],significantly reduced
same,IL-12 mRNA levels,[2]; [4],only GLY reduced
same,NLRC4 mRNA levels,[2]; [4],only GLY reduced
same,NLRP3 mRNA levels,[2]; [4],reduced
same,SIGIRR mRNA levels,[2]; [4],increased modestly
same,TGF-β mRNA levels,[2]; [4],reduced
same,TLR2 mRNA levels,[2]; [4],did not differ from PBS controls
same,TLR4 mRNA,[2]; [4],reduced
same,TNF-α mRNA levels,[2]; [4],"reduced by both GLY and CBX, but only GLY (p<0.01) was significant"
same,mRNA levels of the other molecules tested,"[2]; normal (uninfected) corneas, among PBS, CBX, GLY groups",no differences
same,bacterial load in the corneas (plate count),[3]; 3 days p.i.,not at 3 days p.i.
same,bacterial load in the corneas (plate count),[3]; 5 days p.i.,significantly reduced
